Tested on: neuropathic pain caused by oxaliplatin in rats
Assay: Randall-Selitto pain thresholds in rats given repeated intraperitoneal oxaliplatin (chemo-induced neuropathic pain model)
Experimental: A preclinical study in rats was carried out.
In order to mimic the clinical use as closely as possible, a series of 8 intraperitoneal injections of oxaliplatin were given every 3 to 4 days, as illustrated in FIG. 2. This model is well known in the literature and gives an account of chemo-induced neuropathic pain.
The pain thresholds were evaluated by means of a Randall-Selitto device by applying an increasing pressure to the paw of the rat until the animal lets out a cry. The corresponding weight in grams is then noted (the Y-axis in FIG. 2). Thus, the earlier the animal cries out, for a low weight, the more pain it has.

Row | Structure (SMILES) | pain thresholds (Randall-Selitto, weight at which the animal cries out) (group B: oxaliplatin 2 mg/kg, 8 intraperitoneal injections every 3 to 4 days, with N2/O2 (50%-50%) control gas for 1 hour, control group A 200 g) | persistence of hypersensitivity to pain after the final administration of oxaliplatin (group B, final administration on D25, still present on D42) | hypersensitivity to pain (pain threshold curve versus control group A) (rats given oxaliplatin 2 mg/kg, gas/O2 (50%-50%) inhaled for 1 hour with each administration)
1 | O=C1[O][Pt]2([NH][C@@H]3CCCC[C@H]3[NH]2)[O]C1=O [oxaliplatin] | approximately 150 g | more than 2 weeks | –
2 | [Xe] [xenon] | – | – | no sign of hypersensitivity to pain

Reference: US20130095194A1 (L'Air Liquide, Société Anonyme pour I'Etude et …, priority 2011, published 2013)
